The text below walks through data of PMC6920875, “Dithiocarbamate as a Valuable Scaffold for the Inhibition of Metallo-β-Lactmases” (Biomolecules, 2019).

The subject of data set [1] is Cc1nnc(SCC2=C(C(=O)O)N3C(=O)[C@@H](NC(=O)Cn4cnnn4)[C@H]3SC2)s1. In words: purified protein, by the assay type. The conditions noted are these: other: test conditions: 30 mM Tris pH 7.0, 25 °C.
Data set [2] addresses T1, VIM-2 (Escherichia coli, UniProt Q5U7L7).
T1 construct: made in house; host or cells: E. coli BL21 (DE3), plasmid pET24a-VIM-2
The class given is biochemical. The conditions noted are these: read-out: IC50 against VIM-2; substrate cefazolin 40 µM, 30 mM Tris pH 7.0, 25 °C, 5 min pre-incubation, inhibitor up to 200 μM. As to the method:
(§1) The dithiocarbamates, MβLs and substrates samples were prepared with 30 mM Tris, pH 7.0. […] Enzymes and inhibitors were pre-incubated for 5 min before adding substrate. […] The IC50 values were nonlinearly fitted by plotting the average percentage inhibition against inhibitor concentration. The inhibition modes of DC1 to ImiS, NDM-1 and L1 were assayed by generating Lineweaver–Burk plots, and Ki values were obtained by fitting initial velocity versus substrate concentration at each inhibitor concentration, using SigmaPlot 12.0 (Systat Software Inc., San Jose, CA, USA).
(§2) To evaluate the inhibitory activity of the dithiocarbamates, we over-expressed and purified MβLs NDM-1, VIM-2 and IMP-1 (B1), ImiS (B2), and L1 (B3) from three subclasses as previously reported. The inhibition experiments were performed with an Agilent UV8453 spectrometer. […] The concentrations of inhibitors were varied between 0 and 200 μM. The initial reaction rates were determined in the absence and presence of inhibitors in triplicate, and the generated average values were recorded.

Data set [3] has as its target T2, IMP-1 (Serratia marcescens, UniProt P52699).
T2 construct: made in house; host or cells: E. coli BL21 (DE3), plasmid pET26b-IMP-1
Kind of data set: biochemical. The conditions noted are these: read-out: IC50 against IMP-1; substrate cefazolin 40 µM, 30 mM Tris pH 7.0, 25 °C, 5 min pre-incubation, inhibitor up to 200 μM. On the procedure:
as §1, §2

Data set [4] concerns the target T3, L1 (Stenotrophomonas maltophilia, UniProt P52700).
T3 construct: made in house; host or cells: E. coli BL21 (DE3), plasmid pET-26b-L1
Kind of data set: biochemical. The conditions noted are these: read-out: IC50 against L1; substrate cefazolin 40 µM, 30 mM Tris pH 7.0, 25 °C, 5 min pre-incubation, inhibitor up to 200 μM. On the procedure: as §1, §2

Data set [5] has as its target T4, NDM-1 (Klebsiella pneumoniae, UniProt C7C422).
T4 construct: made in house; host or cells: E. coli BL21 (DE3), plasmid pET26b-NDM-1
In words: biochemical. The conditions noted are these: read-out: IC50 against NDM-1; substrate cefazolin 40 µM, 30 mM Tris pH 7.0, 25 °C, 5 min pre-incubation, inhibitor up to 200 μM. As to the method: as §1, §2

Data set [6] addresses T5, ImiS (Aeromonas veronii, UniProt O31272).
T5 construct: made in house; host or cells: E. coli BL21 (DE3), plasmid pET-26b-ImiS
In words: biochemical. The conditions noted are these: read-out: IC50 against ImiS; substrate imipenem 40 µM, 30 mM Tris pH 7.0, 25 °C, 5 min pre-incubation, inhibitor up to 200 μM. Further details: species or system Aeromonas veronii bv. sobria. As to the method: as §1, §2

Data set [7] deals with T4, NDM-1. In words: Time-dependence inhibition experiment, residual activity. It is filed as biochemical. The conditions noted are these: 13 nM NDM-1 incubated with inhibitor at its IC50 for 8 h.
Data set [8] relates to C[C@@H](O)[C@H]1C(=O)N2C(C(=O)O)=C(SCCN=CN)C[C@H]12. In words: purified protein, by the assay type. The conditions noted are these: other: test conditions: 30 mM Tris pH 7.0, 25 °C.
The test system of data set [9] is mouse fibroblast cells (L-929). Kind of data set: Cytotoxicity assay (MTT). The class given is cell-based. The conditions noted are these: concentration as high as 250 μM, 48 h. On the procedure:
The cytotoxicity assays were performed to evaluate the toxicity of DC1, DC3, DC7 and DC9 in mouse fibroblast cells (L-929). The cells were seeded into 96-well plates at a cell density of 1.0 × 10^4 cells/well, in 100 μL of culture medium and maintained for 24 h. Then, the inhibitors with working concentrations (15.6, 31.25, 62.5, 125, 250, and 500 μM) were added to the 96-well plates and incubated for another 48 h. Three wells containing only cells were suspended in a mixture solution of 98 μL complete medium, as controls for cell viability without inhibitors. Three wells containing only the complete medium were used as blank controls. Following that, the medium was removed, and 100 μL of fresh culture medium and 10 μL MTT were added to each well. After incubation for 4 h, the trays were then vigorously shaken to solubilize the formed product, and the absorbance, at a wavelength of 490 nm, was read on a microplate reader and analyzed. All experiments were conducted in triplicate, and the data are expressed as mean ± standard deviation.
The potential toxicity of dthiocarbamates DC1, DC3, DC7 and DC9 as representatives was assayed using the mouse fibroblast cells (L929) treated with different concentrations of inhibitors (15.625, 31.25, 62.5, 125, 250 and 500 μM).

The subject of data set [10] is E. coli BL21 expressing ImiS. In words: MIC determination, broth micro-dilution, imipenem with inhibitor. The conditions noted are these: 64 μg/mL inhibitor. The class given is cell-based. As to the method: (§3) The minimum inhibitory concentration (MIC) of antibiotics, both alone and in the presence of enzyme inhibitors, was determined using the broth micro-dilution method. Single colonies of E. coli BL21, containing plasmid, pET26b-NDM-1, pET26b-ImiS or pET26b-L1 in lysogeny broth agar plates, were transferred into 5 mL of Mueller–Hinton (MH) liquid medium. Strains grown in MH medium to OD600 = 0.45 were used as inocula, after an 84-fold dilution to 1 × 10^5 CFU/mL in MH medium. […] Compound DCs as inhibitors were dissolved in MH media, to prepare 1024, 512, 256, 128, 64 and 32 μg/mL stock solutions. The prepared solutions with different antibiotic concentrations (50 μL) were diluted to 100 μL, with different concentrations of inhibitor solution (50 μL), then 100 μL inoculum was added sequentially into the prepared solutions, to yield a quarter of the initial concentrations. The mixtures were incubated at 37 °C for 16 h. […] Each measurement was performed in duplicate.
(§4) The ability of the dithiocarbamate derivatives to inhibit MβLs, and to restore the antimicrobial activity of antibiotics, was investigated by determining the minimum inhibitory concentrations (MICs) of existing antibiotics in the presence and absence of DC1-10, as previously reported. E. coli BL21 (DE3) containing plasmids pET26b-NDM-1, pET26b-ImiS and pET26b-L1 were used to assess these inhibitors.

The test system of data set [11] is E. coli BL21 expressing L1. Kind of data set: MIC determination, broth micro-dilution, cefazolin with inhibitor. The class given is cell-based. The conditions noted are these: 64 μg/mL inhibitor. As to the method:
as §3, §4

Data set [12] has as its system E. coli BL21 expressing NDM-1. Described as above. It is filed as cell-based. The conditions noted are these: E. coli BL21-NDM-1; 64 μg/mL inhibitor. On the procedure:
as §3, §4

Structures can show the parent of a compound that is named as a salt.

T3 sequence (P52700 34-290): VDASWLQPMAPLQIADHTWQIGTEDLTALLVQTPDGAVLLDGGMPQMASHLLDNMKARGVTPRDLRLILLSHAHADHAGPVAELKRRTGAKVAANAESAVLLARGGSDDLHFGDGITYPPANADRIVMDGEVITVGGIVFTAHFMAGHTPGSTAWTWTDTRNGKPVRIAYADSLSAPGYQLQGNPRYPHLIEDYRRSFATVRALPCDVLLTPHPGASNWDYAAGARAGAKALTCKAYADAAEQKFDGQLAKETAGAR
T4 sequence (C7C422 29-270 limits assumed): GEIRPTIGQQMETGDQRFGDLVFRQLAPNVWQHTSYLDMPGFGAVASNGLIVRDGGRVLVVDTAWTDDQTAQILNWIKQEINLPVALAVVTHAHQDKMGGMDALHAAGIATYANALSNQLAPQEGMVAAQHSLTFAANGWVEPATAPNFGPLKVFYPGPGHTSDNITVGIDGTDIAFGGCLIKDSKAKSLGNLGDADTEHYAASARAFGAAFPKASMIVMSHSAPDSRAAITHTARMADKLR
T2 sequence (P52699 19-246 limits assumed): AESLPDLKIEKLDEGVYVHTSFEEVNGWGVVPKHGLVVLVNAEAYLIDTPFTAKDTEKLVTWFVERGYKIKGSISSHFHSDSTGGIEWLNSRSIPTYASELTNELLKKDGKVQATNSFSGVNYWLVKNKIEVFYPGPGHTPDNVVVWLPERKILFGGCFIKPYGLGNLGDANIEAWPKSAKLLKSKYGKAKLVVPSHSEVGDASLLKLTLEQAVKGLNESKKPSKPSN
T5 sequence (O31272 28-255 limits assumed): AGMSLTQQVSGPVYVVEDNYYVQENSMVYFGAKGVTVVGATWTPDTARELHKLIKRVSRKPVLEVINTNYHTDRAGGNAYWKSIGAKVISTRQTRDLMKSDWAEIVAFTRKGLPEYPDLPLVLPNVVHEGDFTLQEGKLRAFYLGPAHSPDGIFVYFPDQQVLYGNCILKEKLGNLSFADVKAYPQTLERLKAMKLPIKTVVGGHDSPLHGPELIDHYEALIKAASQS

One may read the Km as the concentration of substrate that gives half-maximal velocity. NDM-1 (Klebsiella pneumoniae): the Km in data set [1] is 15 µM.
Broadly, the melting point is the temperature, or range, at which the solid turns liquid. `O=C(CCc1ccccc1)NNC(=S)[S][K]` (as salt: potassium) [DC9, Potassium 2-(3-phenylpropanoyl)hydrazine-1-carbodithioate] displayed a melting point of 170 to 171 °C.
A word on the IC50: it is the concentration needed to halve the response being measured. `O=C(NNC(=S)[S][K])c1ccc(Cl)cc1` [DC5]: the melting point is > 300 °C. Also, in data set [2], the IC50 was > 200 µM. Moreover, the IC50 in [3] is > 200 µM. Besides, in [4], the half-maximal inhibitory concentration (IC50) was > 200 µM. Besides, the IC50 in data set [5] was 91.3 ± 1.7 µM. Moreover, the IC50 in data set [6] turned out to be 129 ± 2.1 µM.
With `O=C(Cc1ccccc1)NNC(=S)[S][K]` [DC2], the melting point lay within 150 to 151 °C. The IC50 in data set [2] was > 200 µM. Besides, the IC50 in data set [3] came out at 166 ± 2.7 µM. Further, the IC50 in data set [4] amounted to 86.8 ± 1.6 µM. For the same compound, the concentration for half-maximal inhibition (IC50) in data set [5] is 5.64 ± 0.1 µM. For the same compound, in data set [6], the IC50 stood at 2.5 ± 0.1 µM.
As for `O=C(NNC(=S)[S][K])c1ccccc1` [DC8], the IC50 in data set [4] was determined as 25.81 ± 0.12 µM. Moreover, the “time dependence of NDM-1 inhibition (residual activity)” value in data set [7] is on record as “no time-dependent inhibition”.
In the case of ImiS (Aeromonas veronii), in data set [8], the Km turned out to be 52 µM.
Consider `Nc1ccccc1C(=O)NNC(=S)[S][K]` [DC4], for which the melting point is 233 to 234 °C. Also, the IC50 in data set [2] worked out at 139 ± 2.05 µM. Moreover, in data set [3], the IC50 was 103 ± 1.45 µM. In addition, the IC50 in [4] amounted to 177 ± 2.8 µM. Besides, the IC50 in [5] came out at 11.4 ± 0.4 µM. For the same compound, the IC50 in data set [6] is 1.08 ± 0.05 µM.
On to L1 (Stenotrophomonas maltophilia), for which the Km in data set [1] was determined as 60 µM.
For `CC(C)(C)c1ccc(C(=O)NNC(=S)[S][K])cc1` [DC7], the melting point is > 300 °C. The IC50 in data set [2] was 63.5 ± 1.3 µM. Moreover, in data set [3], the IC50 came to 96.4 ± 1.2 µM. The IC50 in data set [4] was found to be 191 ± 4 µM. The IC50 in [5] amounted to 0.52 ± 0.01 µM. In addition, in [6], the IC50 was > 200 µM. Also, the “survival rate of L929 mouse cells” value in data set [9] is on record as “higher than 80%”.
For `O=C(CCc1ccccc1)NNC(=S)[S][K]` [DC9, Potassium 2-(3-phenylpropanoyl)hydrazine-1-carbodithioate], the IC50 was 115 ± 3.1 µM in [2]; 86.2 ± 0.9 µM in [3]; > 200 µM in data set [4]; 62.7 ± 1.05 µM in data set [5]; 156 ± 2.2 µM in data set [6]. In addition, the “survival rate of L929 mouse cells” value in data set [9] was “higher than 80%”.
In the case of `O=C(NNC(=S)[S][K])c1cccc(Br)c1` [DC6], the melting point was > 300 °C. The IC50 in data set [2] is > 200 µM. Moreover, the IC50 in data set [3] is > 200 µM. In [4], the IC50 came out at 154 ± 3.2 µM. In [5], the IC50 was 15.2 ± 0.9 µM. Further, the IC50 in data set [6] amounted to 2.56 ± 0.05 µM.
With `O=C(NNC(=S)[S][K])C(O)c1ccccc1` (centres unmarked) [DC10, Potassium 2-(2-hydroxy-2-phenylacetyl)hydrazine-1-carbodithioate], the “time dependence of NDM-1 inhibition (residual activity)” value in [7] is “no time-dependent inhibition”.
For VIM-2 (Escherichia coli), in data set [1], the Km turned out to be 97 µM.
For the compound `O=C(NNC(=S)[S][K])c1ccc(O)cc1` [DC3], the melting point was in the range of 298 to 299 °C. The IC50 in [2] turned out to be 82.8 ± 1.1 µM. The IC50 in data set [3] is > 200 µM. Moreover, the IC50 in [4] was > 200 µM. The concentration for half-maximal inhibition (IC50) in data set [5] was 67.1 ± 0.9 µM. Moreover, the IC50 in data set [6] is > 200 µM. Further, the “fold reduction in MIC of imipenem” value in data set [10] was “no inhibitory effects”. Moreover, in [11], the “fold reduction in MIC of cefazolin” value is “no inhibitory effects”. Further, the “fold reduction in MIC of cefazolin” value in [12] is reported as “no inhibitory effects”. Also, in data set [9], the “survival rate of L929 mouse cells” value is “higher than 80%”.
As to IMP-1 (Serratia marcescens), in data set [1], the Km was found to be 73 µM.
